# Assay results published in patent publication US4310682A, “Halo-salicylanilide” (priority 1979, dated 1982).
# How the values were obtained:
# Format in all cases: cell-based
# [1] = system: Candida albicans ATCC 10259; experiment: Multiplying state after removal to compound-free medium (scanning electron microscope)
# [2] = system: Aspergillus flavus IFO 8558; experiment: MIC, Sabouraud agar medium containing the compound; conditions: fungus No. 6, 20° C., 14 days
# Description: (§1) In order to test antifungal and bactericidal activity of halo-salicylanilide obtained in above mentioned Examples, following bacteria and fungi are employed.
# No. 6 Aspergillus flavus IFO 8558
# (§2) Bacteria No. 1 to No. 4 are respectively cultured in Hart Infusion bouillon medium at 37° C. for 20 hours and resulting medium liquids are employed for said test. Fungi No. 5 to No. 7 are respectively cultured in Sabouraud agar medium and 10^6 cell/ml of cell dispersing liquids obtained from said medium are employed for said test.
# [3] = system: Trichophyton rubrum IFO 9185; experiment: MIC, Sabouraud agar medium containing the compound; conditions: fungus No. 7, 20° C., 14 days
# Description: as §1
# No. 7 Trichophyton rubrum IFO 9185
# as §2
# [4] = system: Staphylococcus aureus FDA-209-P; experiment: MIC, agar medium containing the compound; conditions: bacterium No. 3, 37° C., 4 hours
# Description: as §1
# No. 3 Staphylococcus aureus FDA-209-P
# as §2
# [5] = system: Bacillus subtilis PCI-219; experiment: MIC, agar medium containing the compound; conditions: bacterium No. 4, 37° C., 4 hours
# Description: as §1
# No. 4 Bacillus subtilis PCI-219
# as §2
# [6] = system: Candida albicans ATCC 10259; experiment: MIC, Sabouraud agar medium containing the compound; conditions: fungus No. 5, 20° C., 14 days
# Description: as §1
# No. 5 Candida albicans ATCC 10259
# as §2
# [7] = system: bacteria No. 1 to No. 4 and fungi No. 5 to No. 7; experiment: Antifungal and bactericidal activity test, overall assessment of Table 8; conditions: referring to Table 8
# Description: as §1, §2
# Referring now to Table 8, in said Examples the halo-salicylanilides provided have respectively remarkable higher antifungal and bactericidal activity than that of the contrasts proposed and said halo-salicylanilidesare especially effective on bacteria No. 3 and No. 4, and fungi No. 5, No. 6 and No. 7. This testifies that alkyl group of 2'-position of the halo-salicylanilides is significant for the activities of the compound. […] Especially the halo-salicylanilides having fluorine in 5-position are very useful for agricultural medicines.
# [8] = system: Escherichia coli NIHJ JC-2; experiment: MIC, agar medium containing the compound; conditions: bacterium No. 1, 37° C., 4 hours
# Description: as §1
# No. 1 Escherichia coli NIHJ JC-2
# as §2
smiles,measurement,setting,value
"Cc1cc(Cl)ccc1NC(=O)c1cc(I)ccc1O [compound 3, 5-iodo-2'-methyl-4'-chloro salicylanilide]",multiplying state of the fungi after removal to culture medium without the compound,"[1]; first cultured in medium containing the compound, then removed, FIG. 1 and FIG. 2",does not start to multiply
same,destruction of the cell membranes of the fungi,"[1]; scanning electron microscope, FIG. 2",destruction of the cell membranes of the fungi is observed
same,MIC (Minimum Inhibitory Concentration),[2],6.3
same,MIC (Minimum Inhibitory Concentration),[3],6.3
same,MIC (Minimum Inhibitory Concentration),[4],0.75
same,MIC (Minimum Inhibitory Concentration),[5],1.5
same,MIC (Minimum Inhibitory Concentration),[6],6.3
same,antifungal and bactericidal activity (assessment in words),[7],remarkable antifungal and bactericidal activity
same,MIC (Minimum Inhibitory Concentration),[8],> 100
